Format in all cases: cell-based
Series [1] deals with SARS-CoV-2. Kind of series: In vitro antiviral assay, development of cytopathic effects (CPE), Example 1. To be noted: for minimal effective concentration: ten-fold dilutions from 25 µM, read-out: Initial titre (Minimum concentration of drug inhibiting development of CPE). Background: Damage to the host cells serves as the signal in cytopathic effect assays.
In series [2] the test system is VeroE6 cells. The experiment in a line: Evaluation of toxicity without virus (CPE and MTT assay), Example 1. To be noted: for Minimum Cytotoxicity: absence of virus, 72 h. The procedure:
Serially diluted compounds (⅒ dilution) were added in each well in the absence of virus and incubated for 72 hours, and at end point the CPE was recorded as above. In parallel, a duplicate plate was set up for an MTT assay (Abcam Ab 211091) carried out following the manufacturer’s recommendations. Briefly, the culture medium was discarded and 50 µl of fresh medium and MTT reagent was added to each well, including a background (no cell) control. The plates were returned to the 37° C. incubator for 3 hours before the MTT/media solution was discarded and 150 µl of MTT solvent was added to each well. The plates were incubated for a further 15 minutes in foil on a hula mixer and the absorbance recorded at 590 nm. The percentage of cytotoxicity was calculated as follows: (DMSO control - sample)/DMSO control, after replicate values were averaged and corrected for the background control (no cell control).
(Tetrazolium dyes change colour on reduction, which living cells bring about.)

Series [3] concerns SARS-CoV-2. The experiment in a line: microbe, parasite or virus in culture.
Where [4] appears, read: Severe acute respiratory syndrome coronavirus 2, Vero C1008, 20 PFU/well SARS-CoV-2, VeroE6 cells, 72 h.
Setting [5] is: Severe acute respiratory syndrome coronavirus 2, Vero C1008, 72 h, 20 PFU/well SARS-CoV-2, VeroE6 cells, 72 h, narrower dilution steps in quadruplicate, read-out: Repeat TCID50 (TCID50 measurement for drugs showing greatest initial efficacy on titration).
The mark [6] stands for this setting: Severe acute respiratory syndrome coronavirus 2, Vero C1008, Table 3A, predetermined IC50 of individual drug, Vero-E6, 20 pfu/well, read-out: IC50 (drug used alone).
[7] abbreviates: Severe acute respiratory syndrome coronavirus 2, Vero C1008, Vero-E6, 20 pfu/well, 72 h, read-out: IC50 measured when each drug used individually.
The mark [8] stands for this setting: Severe acute respiratory syndrome coronavirus 2, Vero C1008, 72 h, read-out: IC50 measured when each drug used individually.
The mark [9] stands for this setting: Severe acute respiratory syndrome coronavirus 2, Vero C1008, read-out: IC50 (drug used alone).

Structures can show the parent of a compound that is named as a salt. Where two headings read alike, the source gives them in different places. Where only a bound is given, the exact number is not on record here.

In the case of `COC(=O)N[C@H](C(=O)N[C@@H](Cc1ccccc1)[C@@H](O)CN(Cc1ccc(-c2ccccn2)cc1)NC(=O)[C@@H](NC(=O)OC)C(C)(C)C)C(C)(C)C` [Atazanavir], the minimal effective concentration in series [1] (setting [4]) was above 25 µM. For the same compound, the “Minimum Cytotoxicity” value in series [2] is given as above 25 µM.
Regarding `C[C@H]1[C@H](NC(=O)/C(=N\OC(C)(C)C(=O)O)c2csc(N)n2)C(=O)N1S(=O)(=O)O` [Aztreonam], in series [1] (setting [4]), the minimal effective concentration was above 25 µM. The “Minimum Cytotoxicity” value in series [2] is listed as above 25 µM.
For the compound `CC(C)c1nc(CN(C)C(=O)N[C@@H](CCN2CCOCC2)C(=O)N[C@H](CC[C@H](Cc2ccccc2)NC(=O)OCc2cncs2)Cc2ccccc2)cs1` [Cobicistat], the minimal effective concentration in series [1] (setting [4]) is above 25 µM. In series [2], the “Minimum Cytotoxicity” value is given as above 25 µM.
Turning to `Nc1nc(F)nc2c1ncn2[C@@H]1O[C@H](COP(=O)(O)O)[C@@H](O)[C@@H]1O` [Fludarabine phosphate], the “Minimum Cytotoxicity” value in series [2] came to 25 µM. Besides, the results for the “cytotoxicity in the MTT assay” value in series [2] (at 2.5 µM) and in series [2] (at 25 µM) were “none” and “showed cytotoxicity”, respectively.
As to `Nc1nc(=O)c2c([nH]1)NCC(CNc1ccc(C(=O)N[C@@H](CCC(=O)[O-])C(=O)[O-])cc1)N2C=O.[Ca+2]` (some centres unmarked) [Folinic acid calcium salt hydrate], the minimal effective concentration in series [1] (20 PFU/well SARS-CoV-2, VeroE6 cells, 72 h) is above 25 µM. In addition, the “Minimum Cytotoxicity” value in series [2] is given as above 25 µM.
For the compound `CCN(CCO)CCCC(C)Nc1ccnc2cc(Cl)ccc12` (centres unmarked) [Hydroxychloroquine], the IC50 stood at 2.9 µM in series [1] (20 PFU/well SARS-CoV-2, VeroE6 cells, 72 h, narrower dilution steps in quadruplicate, read-out: Repeat TCID50 (TCID50 measurement for drugs showing greatest initial efficacy on titration)); 2 µM in series [1] (setting [5]); 1.58 µM in series [3] (setting [6]); 1.58 µM in series [3] (setting [7]). Further, the minimal effective concentration in series [1] (setting [4]) worked out at 25 µM. Further, in series [2], the “Minimum Cytotoxicity” value is listed as 25 µM. Moreover, the “cytotoxicity in the MTT assay” value was “none” in series [2] (at 2.5 µM) and “showed cytotoxicity” in series [2] (at 25 µM).
As to `CC(C)(C)NC(=O)[C@@H]1CN(Cc2cccnc2)CCN1C[C@@H](O)C[C@@H](Cc1ccccc1)C(=O)N[C@H]1c2ccccc2C[C@H]1O` [Indinavir sulfate], the “Minimum Cytotoxicity” value in series [2] is reported as above 25 µM.
With `CS(=O)(=O)c1cccc(C[C@H](NC(=O)c2c(Cl)cc3c(c2Cl)CCN(C(=O)c2ccc4ccoc4c2)C3)C(=O)O)c1` [Lifitegrast], the minimal effective concentration in series [1] (setting [4]) is above 25 µM. Further, the “Minimum Cytotoxicity” value in series [2] is above 25 µM.
On the same counts, the results for `CCCNS(=O)(=O)Nc1ncnc(OCCOc2ncc(Br)cn2)c1-c1ccc(Br)cc1` [Macitentan] are above 25 µM and above 25 µM.
Consider `Cc1c(O)cccc1C(=O)N[C@@H](CSc1ccccc1)[C@H](O)CN1C[C@H]2CCCC[C@H]2C[C@H]1C(=O)NC(C)(C)C` [Nelfinavir mesylate], for which the IC50 in series [1] (Severe acute respiratory syndrome coronavirus 2, Vero C1008, 72 h, read-out: Repeat TCID50 (TCID50 measurement for drugs showing greatest initial efficacy on titration), 20 PFU/well SARS-CoV-2, VeroE6 cells, 72 h, narrower dilution steps in quadruplicate) worked out at 2.9 µM; in series [1] (read-out: Repeat TCID50 (TCID50 measurement for drugs showing greatest initial efficacy on titration), 20 PFU/well SARS-CoV-2, VeroE6 cells, 72 h, narrower dilution steps in quadruplicate) it was 2 µM; in series [3] (setting [8]), 0.39 µM; in series [3] (setting [9]), 0.39 µM. In series [2], the “Minimum Cytotoxicity” value was found to be 25 µM. The “cytotoxicity in the MTT assay” value in series [2] (at 2.5 µM) is “none”; in series [2] (at 25 µM) it was “showed cytotoxicity”.
Regarding `Cc1onc(-c2ccccc2)c1C(=O)N1CCN(c2ccc([N+](=O)[O-])cc2Cl)CC1` [Nucleozin], in series [1] (setting [4]), the minimal effective concentration is above 25 µM. The “Minimum Cytotoxicity” value in series [2] is above 25 µM.
`CCC(CC)COC(=O)[C@H](C)N[P@](=O)(OC[C@H]1O[C@@](C#N)(c2ccc3c(N)ncnn23)[C@H](O)[C@@H]1O)Oc1ccccc1` [Remdesivir]: the IC50 in series [3] (setting [8]) and in series [3] (setting [9]) was 1.56 µM in each case.
Turning to `Cc1cc(/C=C/C#N)cc(C)c1Nc1ccnc(Nc2ccc(C#N)cc2)n1` [Rilpivirine hydrochloride], the minimal effective concentration in series [1] (setting [4]) was above 25 µM. The “Minimum Cytotoxicity” value in series [2] was above 25 µM.
Taken in the same sequence, the figures for `Cn1nnc(-c2ccc(-c3ccc(N4C[C@H](COP(=O)(O)O)OC4=O)cc3F)cn2)n1` [Tedizolid phosphate] were above 25 µM and above 25 µM.
For the compound `CCCc1nc(C)c2c(=O)[nH]c(-c3cc(S(=O)(=O)N4CCN(CC)CC4)ccc3OCC)nn12` [Vardenafil hydrochloride trihydrate, 2-[2-ethoxy-5-(4-ethylpiperazin-1-yl)sulfonylphenyl]-5-methyl-7-propyl-3H-imidazo[5,1-f][1,2,4]triazin-4-one], the IC50 is above 25 µM in series [1] (setting [5]), 6.25 µM in series [3] (setting [6]) and 6.25 µM in series [3] (setting [7]). For the same compound, the minimal effective concentration in series [1] (setting [4]) came out at 25 µM. In series [2], the “Minimum Cytotoxicity” value was above 25 µM.

Source of the values: patent US20230124467A1, “COMPOUNDS AND METHODS FOR TREATING DISEASES AND/OR CONDITIONS CAUSED BY CORONAVIRUS” (priority 2020, published 2023).
